This is an account of results in publication PMC2851645, “An Odorant Receptor from the Southern House Mosquito Culex pipiens quinquefasciatus Sensitive to Oviposition Attractants” (PLoS ONE, 2010).

One assay deals with CquiOR2 + CquiOR7 (Culex quinquefasciatus, UniProt D5LMR6). The experiment in a line: Two-electrode voltage clamp of Xenopus oocytes expressing CquiOR2 + CquiOR7. Format: cell-based. The following applies: for nH (Hill coefficient): Hill fit of concentration-response data, 5–16 oocytes; for Emax: read-out: Relative Efficacy; for current response in panel screen: each compound applied for 20 s at 10 µM; for relative efficacies (maximal responses) compared with indole: in words. As to the method:
Oocytes were surgically removed from mature Xenopus laevis frogs (Nasco). The care and use of Xenopus laevis frogs in this study were approved by the University of Miami Animal Research Committee and meet the guidelines of the National Institutes of Health. Follicle cells were removed by treatment with Collagenase B (Boehringer Mannhem) for 2 h at room temperature. CquiOR2 and CquiOR7 were transferred into pGEMHE [27]. Capped cRNA encoding each OR subunit was generated using mMessage mMachine kits (Ambion). 25 ng of cRNA encoding each OR subunit was injected into Stage V-VI Xenopus oocytes. Oocytes were incubated at 18°C in Barth's saline (in mM: 88 NaCl, 1 KCl, 2.4 NaHCO3, 0.3 CaNO3, 0.41 CaCl2, 0.82 MgSO4, 15 HEPES, pH 7.6, and 100 µg/ml amikacin) for 2–5 days prior to electrophysiological recording.
Odorant-induced currents were recorded under two-electrode voltage clamp from oocytes expressing ORs, using an automated parallel electrophysiology system (OpusXpress 6000A; Molecular Devices). Oocytes were perfused with ND96 (in mM: 96 NaCl, 2 KCl, 1 CaCl2, 1 MgCl2, 5 HEPES, pH 7.5). […] Micropipettes were filled with 3 M KCl and had resistances of 0.2–2.0 MΩ. The holding potential was −70 mV. Current responses were filtered (4-pole, Bessel, low pass) at 20 Hz (-3 db), sampled at 100 Hz and were captured and stored using OpusXpress 1.1 software (Molecular Devices). Initial analysis of electrophysiological data was done using Clampfit 9.1 software (Molecular Devices). Curve fitting of concentration-response data was done using Prism 4 (Graphpad). Concentration-response data were fit to the equation: I = Imax/(1+(EC50/X)^n) where I represents the current response at a given concentration of odorant, X; Imax is the maximal response; EC50 is the concentration of odorant yielding a half maximal response; n is the apparent Hill coefficient.

The test system of the next assay is AgamOR2. The arrangement: method as in PMID 20130575, PMID 20160092, PMID 14724626, PMID 18427108. The following applies: cited from earlier work.
In assay [1] the test system is ORN-B in the blunt-tipped trichoid sensilla A2. The arrangement: method as in PMID 19858490. The following applies: cited from earlier work; for excitatory response of ORN-B: compounds tested individually.
In another assay the test system is gravid Culex mosquitoes. The arrangement: method as in PMID 18725946, PMID 10083752, PMID 1583482, PMID 15274442. The following applies: indoor bioassays and field tests; cited from earlier work.
For another assay, the system named is AgamOR10. The arrangement: method as in PMID 20130575, PMID 20160092, PMID 18427108. The following applies: cited from earlier work.
Setting [2] is: 20 s applications, Hill fit, mean ± SEM, 5–16 separate oocytes, read-out: EC50.
The mark [3] stands for this setting: maximum value from fit, as percentage of the maximum value for indole, mean ± SEM.

Molecules are shown by their SMILES. Entries after “also recorded” stand apart in the source; their conditions may differ. Read-outs that look alike come from different tables or passages of the source.

CquiOR2 + CquiOR7, sequence (Q309I4 entry or part of it): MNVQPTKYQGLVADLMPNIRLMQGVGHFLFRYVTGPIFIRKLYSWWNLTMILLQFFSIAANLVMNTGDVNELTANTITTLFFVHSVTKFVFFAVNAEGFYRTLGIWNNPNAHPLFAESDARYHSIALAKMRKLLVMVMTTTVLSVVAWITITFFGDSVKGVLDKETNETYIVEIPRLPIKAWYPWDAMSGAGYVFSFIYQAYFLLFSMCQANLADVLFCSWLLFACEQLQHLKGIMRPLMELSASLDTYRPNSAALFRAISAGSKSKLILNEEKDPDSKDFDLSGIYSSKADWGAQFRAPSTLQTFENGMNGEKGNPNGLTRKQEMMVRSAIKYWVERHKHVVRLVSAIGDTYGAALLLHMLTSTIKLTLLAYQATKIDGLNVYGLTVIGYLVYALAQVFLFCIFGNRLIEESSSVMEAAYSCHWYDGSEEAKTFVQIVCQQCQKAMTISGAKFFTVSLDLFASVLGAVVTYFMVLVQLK
CquiOR2 + CquiOR7, sequence (D5LMR6 entry or part of it): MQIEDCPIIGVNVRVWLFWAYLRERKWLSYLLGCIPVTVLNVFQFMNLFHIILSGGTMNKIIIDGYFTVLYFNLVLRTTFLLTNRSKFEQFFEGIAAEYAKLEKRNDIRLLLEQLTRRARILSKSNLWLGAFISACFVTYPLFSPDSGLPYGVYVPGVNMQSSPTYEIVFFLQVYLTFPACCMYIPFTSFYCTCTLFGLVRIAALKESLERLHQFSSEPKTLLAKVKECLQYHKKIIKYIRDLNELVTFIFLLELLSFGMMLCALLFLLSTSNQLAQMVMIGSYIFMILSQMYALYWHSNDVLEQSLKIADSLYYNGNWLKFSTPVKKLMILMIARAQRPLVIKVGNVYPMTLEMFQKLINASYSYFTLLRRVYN

In the case of `Cn1ccc2ccccc21` [1-Methylindole], at CquiOR2 + CquiOR7, the EC50 came out at 20 ± 6 µM and the Emax was 84 ± 9%. In addition, the “nH (Hill coefficient)” value at CquiOR2 + CquiOR7 (mean ± SEM) turned out to be 1.3±0.5.
Turning to `Cc1cc2ccccc2[nH]1` [2-Methylindole], the EC50 at CquiOR2 + CquiOR7 (setting [2]) stood at 7.5 ± 4.1 µM. Besides, the “nH (Hill coefficient)” value on CquiOR2 + CquiOR7 (mean ± SEM) is 0.9±0.4. For the same compound, at CquiOR2 + CquiOR7 (setting [3]), the Emax came to 106 ± 16%.
For the compound `Cc1ccccc1O` [2-Methylphenol], in the assay on AgamOR2, the “response of AgamOR2” value is reported as “strongly respond”. Besides, at CquiOR2 + CquiOR7, the half-maximal effective concentration (EC50) is 7.3 ± 1.5 µM, the “current response in panel screen” value is “responded well; also recorded: best responses for phenolic compounds”, the “relative efficacies (maximal responses) compared with indole” value (“relative efficacies (maximal responses)” below) is “lower relative efficacies than indole” and the Emax was found to be 70 ± 9%. Further, on CquiOR2 + CquiOR7 (mean ± SEM), the “nH (Hill coefficient)” value worked out at 1.0±0.2. In addition, the “excitatory response of ORN-B” value in assay [1] is recorded as “eliciting the strongest response”.
For `Cc1c[nH]c2ccccc12` [3-Methylindole], in the assay with AgamOR2, the “response of AgamOR2” value is reported as “strongly respond”. For the same compound, the “attraction of gravid Culex mosquitoes” value in the assay on gravid Culex mosquitoes was “attractants”. The EC50 on CquiOR2 + CquiOR7 (setting [2]) stood at 20 ± 6 µM. The “nH (Hill coefficient)” value on CquiOR2 + CquiOR7 (mean ± SEM) came out at 0.9±0.2. Further, the Emax at CquiOR2 + CquiOR7 (setting [3]) came out at 92 ± 8%. In addition, the “response of AgamOR10” value in the assay with AgamOR10 is reported as “strongly respond”.
Turning to `Cc1cccc(O)c1` [3-methylphenol], the “response threshold compared with 2-methylphenol” value in assay [1] is reported as “three orders of magnitude higher”.
`Cc1cccc2[nH]ccc12` [4-Methylindole]: the EC50 at CquiOR2 + CquiOR7 (setting [2]) amounted to 3.6 ± 0.8 µM. The “nH (Hill coefficient)” value at CquiOR2 + CquiOR7 (mean ± SEM) was found to be 1.0±0.2. The “relative efficacies (maximal responses)” value at CquiOR2 + CquiOR7 was “lower relative efficacies than indole”. In addition, on CquiOR2 + CquiOR7 (setting [3]), the Emax is 60 ± 4%.
In the case of `Cc1ccc(O)cc1` [4-methylphenol], in the assay with AgamOR10, the “response of AgamOR10” value is “strongly respond”. For the same compound, the “response threshold compared with 2-methylphenol” value in assay [1] is recorded as “three orders of magnitude higher”.
Take `Cc1ccc2[nH]ccc2c1` [5-Methylindole]: on CquiOR2 + CquiOR7 (setting [2]), the EC50 was found to be 8.6 ± 2 µM. On CquiOR2 + CquiOR7 (mean ± SEM), the “nH (Hill coefficient)” value was 1.1±0.2. Besides, on CquiOR2 + CquiOR7, the “relative efficacies (maximal responses)” value is listed as “lower relative efficacies than indole”. For the same compound, at CquiOR2 + CquiOR7 (setting [3]), the Emax came out at 59 ± 4%.
Regarding `Cc1ccc2cc[nH]c2c1` [6-Methylindole], on CquiOR2 + CquiOR7 (setting [2]), the 50% effective concentration (EC50) amounted to 3 ± 0.6 µM. Moreover, the “nH (Hill coefficient)” value at CquiOR2 + CquiOR7 (mean ± SEM) was found to be 0.9±0.2. In addition, the “relative efficacies (maximal responses)” value at CquiOR2 + CquiOR7 is reported as “lower relative efficacies than indole”. The Emax on CquiOR2 + CquiOR7 (setting [3]) came out at 69 ± 4%.
For `Cc1cccc2cc[nH]c12` [7-Methylindole] the same measures were 18 ± 3 µM, 1.1±0.2, “lower relative efficacies than indole” and 67 ± 4%.
`c1ccc2[nH]ccc2c1` [Indole]: in the assay on AgamOR2, the “response of AgamOR2” value is given as “strongly respond”. Also, in the assay on gravid Culex mosquitoes, the “attraction of gravid Culex mosquitoes” value is “attractants”. Moreover, at CquiOR2 + CquiOR7, the EC50 turned out to be 0.28 ± 0.12 µM, the “current response in panel screen” value is “largest current responses” and the Emax was found to be 100%. The “nH (Hill coefficient)” value at CquiOR2 + CquiOR7 (mean ± SEM) came to 0.8±0.2. Besides, the “selectivity for indole over the various methylindoles” value on CquiOR2 + CquiOR7 (Xenopus oocyte system) was 10- to 70 fold. Moreover, the “response of AgamOR10” value in the assay on AgamOR10 is “strongly respond”. In assay [1], the “excitatory response of ORN-B” value is “strongest dose-dependent responses”. Further, the “selectivity for indole over methylindoles” value in assay [1] (single sensillum recordings from A2) is listed as “three orders of magnitude selectivity”.
